Results taken from US9708314B2, “Heterocyclic amide compound” (NISSAN CHEMICAL INDUSTRIES, LTD., priority 2013, dated 2017).

What was measured:
Type in all cases: in vivo
[1] = tested on: transplanted Oryza sativa; assay: Test Example 1: effect on crop, application before weed generation in submerged conditions; conditions: Application herbicide amount 320 g/ha; Seventeenth Table
In short: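 Water-diluted emulsion formulation is applied onto flood water (4 cm deep) covering alluvial soil on the day weed seeds are sown, after transplanting 2.5 leaf stage rice. Rates are expressed per hectare. Injury or control is graded 0–5 three weeks later.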

[2] = tested on: directly sowed Oryza sativa; assay: Test Example 3: effect on crop by application to foliage (Wagner pot, water depth 0.1-0.5 cm); conditions: Nineteenth Table; application to foliage; application herbicide amount 320 g/ha
In short: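 Scores (0–5) reflect herbicidal ratio three weeks after a foliar spray: 0 is 5% or less, 5 is 90% or more. Plants had grown 14 days in alluvial soil pots in a 25–30 °C greenhouse before treatment with water-diluted emulsion at a set g/ha.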

Abutilon theophrasti = assay: Test Example 4: herbicidal effect by application to foliage (diluvial soil, plastic box); conditions: foliage application, 320 g/ha
In short: (§1)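 Greenhouse plants (25° C. to 30° C., 14 d, diluvial soil) receive a foliar spray of water-diluted emulsifiable formulation at defined g/ha. Grading after 3 weeks uses a six-step herbicidal-ratio scale, with 4 covering 70% to <90% and 1 covering 5% to <20%.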

Apera spica-venti. = assay: as above; conditions: foliage application, 320 g/ha
In short: as §1

Avena fatua = assay: as above; conditions: foliage application, 320 g/ha
In short: as §1

Chenopodium album = assay: as above; conditions: foliage application, 320 g/ha
In short: as §1

[3] = tested on: Echinochloa crus-galli var. crus-galli; assay: as above; conditions: foliage application, 320 g/ha
In short: as §1

Galium spurium = assay: as above; conditions: foliage application, 320 g/ha
In short: as §1

Veronica persica = assay: as above; conditions: foliage application, 320 g/ha
In short: as §1

Structure (SMILES) | a: transplanted Oryza sativa (effect on crop grade) [1] | b (effect on crop grade) [2] | M (Abutilon theophrasti) herbicidal effect grade (Abutilon theophrasti) | L (Apera spica-venti.) herbicidal effect grade (Apera spica-venti.) | I (Avena fatua) herbicidal effect grade (Avena fatua) | O (Chenopodium album) herbicidal effect grade (Chenopodium album) | H (Echinochloa crus-galli var. crus-galli) herbicidal effect grade [3] | Q (Galium spurium) herbicidal effect grade (Galium spurium) | R (Veronica persica) herbicidal effect grade (Veronica persica)
Cn1nnnc1NC(=O)c1ccc(C(F)(F)F)n2c(-c3ccc(Cl)nc3)nnc12 [2-060] | 5 (Herbicidal ratio of 90% or more (almost completely withered)) | 5 (Herbicidal ratio of 90% or more (almost completely withered)) | 5 (Herbicidal ratio of 90% or more (almost completely withered)) | 4 (Herbicidal ratio of 70% or more and less than 90%) | 4 (Herbicidal ratio of 70% or more and less than 90%) | 5 (Herbicidal ratio of 90% or more (almost completely withered)) | 5 (Herbicidal ratio of 90% or more (almost completely withered)) | 4 (Herbicidal ratio of 70% or more and less than 90%) | 5 (Herbicidal ratio of 90% or more (almost completely withered))
Cn1nnnc1NC(=O)c1ccc(C(F)(F)F)n2c(-c3cccs3)nnc12 [2-061] | 4 (Herbicidal ratio of 70% or more and less than 90%) | 5 (Herbicidal ratio of 90% or more (almost completely withered)) | 4 (Herbicidal ratio of 70% or more and less than 90%) | 3 (Herbicidal ratio of 40% or more and less than 70%) | 4 (Herbicidal ratio of 70% or more and less than 90%) | 5 (Herbicidal ratio of 90% or more (almost completely withered)) | 5 (Herbicidal ratio of 90% or more (almost completely withered)) | 3 (Herbicidal ratio of 40% or more and less than 70%) | 5 (Herbicidal ratio of 90% or more (almost completely withered))
Cc1cc(-c2nnc3c(C(=O)Nc4nnnn4C)ccc(C(F)(F)F)n23)n(C)n1 [2-062] | 5 (Herbicidal ratio of 90% or more (almost completely withered)) | 5 (Herbicidal ratio of 90% or more (almost completely withered)) | 5 (Herbicidal ratio of 90% or more (almost completely withered)) | 5 (Herbicidal ratio of 90% or more (almost completely withered)) | 5 (Herbicidal ratio of 90% or more (almost completely withered)) | 5 (Herbicidal ratio of 90% or more (almost completely withered)) | 5 (Herbicidal ratio of 90% or more (almost completely withered)) | 5 (Herbicidal ratio of 90% or more (almost completely withered)) | 5 (Herbicidal ratio of 90% or more (almost completely withered))
COc1cc(OC)cc(-c2nnc3c(C(=O)Nc4nnnn4C)ccc(C(F)(F)F)n23)c1 [2-063] | 4 (Herbicidal ratio of 70% or more and less than 90%) | 3 (Herbicidal ratio of 40% or more and less than 70%) | 5 (Herbicidal ratio of 90% or more (almost completely withered)) | 3 (Herbicidal ratio of 40% or more and less than 70%) | 4 (Herbicidal ratio of 70% or more and less than 90%) | 5 (Herbicidal ratio of 90% or more (almost completely withered)) | 5 (Herbicidal ratio of 90% or more (almost completely withered)) | 4 (Herbicidal ratio of 70% or more and less than 90%) | 5 (Herbicidal ratio of 90% or more (almost completely withered))
